#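 48-hour exposure; five concentrations; linearly interpolated endpoints. GI50 = concentration required for 50% inhibition of growth. TGI marks complete inhibition of growth.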
# Assays:
# Test in all cases: DTP human tumour cell line panel, 48 h
# HOP-62 NSCLC = system: HOP-62 NSCLC
# TK-10 renal = system: TK-10 renal
# SNB-75 CNS = system: SNB-75 CNS
# SK-MEL-28 melanoma = system: SK-MEL-28 melanoma
# ACHN renal = system: ACHN renal
# T-47D breast = system: T-47D breast
# COLO 205 colon = system: COLO 205 colon
# SF-539 CNS = system: SF-539 CNS
# SR leukemia = system: SR leukemia
# A549 NSCLC = system: A549 NSCLC
SMILES,GI50 (HOP-62 NSCLC),TGI (HOP-62 NSCLC),GI50 (TK-10 renal),TGI (TK-10 renal),GI50 (SNB-75 CNS),TGI (SNB-75 CNS),GI50 (SK-MEL-28 melanoma),TGI (SK-MEL-28 melanoma),GI50 (ACHN renal),TGI (ACHN renal),GI50 (T-47D breast),TGI (T-47D breast),GI50 (COLO 205 colon),TGI (COLO 205 colon),GI50 (SF-539 CNS),TGI (SF-539 CNS),GI50 (SR leukemia),TGI (SR leukemia),GI50 (A549 NSCLC),TGI (A549 NSCLC)
CCN(CC)CCCCCCNc1cc(OC)cc2cccnc12,2.06 µM,5.11 µM,16.1 µM,30.8 µM,13.8 µM,30.6 µM,2.09 µM,4.53 µM,1.84 µM,3.56 µM,17.5 µM,38.6 µM,1.94 µM,3.85 µM,1.84 µM,3.53 µM,1.99 µM,4.1 µM,4.35 µM,15.4 µM
Cc1ccc(/C(C#N)=C/c2cccc([N+](=O)[O-])c2)cc1,–,> 100 µM,–,> 100 µM,–,39.6 µM,–,> 100 µM,–,> 100 µM,–,> 100 µM,–,> 100 µM,–,> 100 µM,–,> 100 µM,–,> 100 µM
C=CCN1CC(=O)N2[C@@H](Cc3ccc(O)cc3F)C(=O)N(Cc3cccc(N4CC(N5CCN(CC)CC5)C4)n3)C[C@@H]2N1C(=O)NCc1ccccc1,0.0562 µM,> 100 µM,0.16 µM,> 100 µM,0.017 µM,0.131 µM,0.0405 µM,> 100 µM,0.393 µM,> 100 µM,0.0339 µM,> 100 µM,0.028 µM,0.262 µM,0.0317 µM,0.288 µM,0.0292 µM,1.7 µM,0.0412 µM,> 100 µM
COC(=O)c1cc2c(cc1Cl)SC1=NN(C)C(N(C)C)N1S2(=O)=O (stereo not given),> 100 µM,> 100 µM,> 100 µM,> 100 µM,> 100 µM,> 100 µM,> 100 µM,> 100 µM,> 100 µM,> 100 µM,> 100 µM,> 100 µM,> 100 µM,> 100 µM,> 100 µM,> 100 µM,> 100 µM,> 100 µM,> 100 µM,> 100 µM
COC(=O)[C@H]1CCCN1C(=O)[C@H]1CCCN1C(=O)[C@@H](Cc1c[nH]c2ccccc12)NC(=S)Nc1cc(C(F)(F)F)cc(C(F)(F)F)c1,2.01 µM,3.83 µM,2.21 µM,5.62 µM,1.52 µM,5.82 µM,2.07 µM,4.17 µM,2.51 µM,7.78 µM,3.27 µM,16.4 µM,1.83 µM,3.49 µM,1.92 µM,3.61 µM,2.53 µM,5.65 µM,1.83 µM,4.52 µM
NS(=O)(=O)c1ccc(-c2cc3ccncc3cc2OCc2ccccc2)cc1,6.83 µM,> 25 µM,> 23.1 µM,> 25 µM,5.27 µM,> 25 µM,20.6 µM,> 25 µM,> 19 µM,> 25 µM,> 19.4 µM,> 25 µM,> 21.2 µM,> 25 µM,7.17 µM,> 25 µM,6.58 µM,> 23.4 µM,8.59 µM,> 25 µM
Cc1cc(N(CCCNc2ccnc3cc(Cl)ccc23)Cc2ccco2)nc(N2CCN(C)CC2)n1,3.65 µM,14.3 µM,2.08 µM,4.82 µM,1.29 µM,5.56 µM,1.74 µM,3.41 µM,2.46 µM,6.51 µM,2.15 µM,5.68 µM,1.89 µM,3.94 µM,1.68 µM,3.23 µM,2.08 µM,5.62 µM,4.34 µM,15.4 µM
O=C(O)Cc1cccnc1,–,> 100 µM,–,> 100 µM,–,> 100 µM,–,> 100 µM,–,> 100 µM,–,> 100 µM,–,> 100 µM,–,> 100 µM,–,> 100 µM,–,> 100 µM
O=C(CC1(O)C(=O)N(Cc2ccccc2)c2ccccc21)c1ccc(C(=O)NCC2CCC3(CC2)OOC2(CCCCC2)OO3)cc1 (stereo not given),0.273 µM,0.86 µM,0.835 µM,2.24 µM,1.58 µM,3.44 µM,4.96 µM,26.8 µM,0.195 µM,0.399 µM,1.41 µM,4.04 µM,1.93 µM,4.51 µM,0.399 µM,1.04 µM,0.344 µM,1.66 µM,0.201 µM,0.458 µM
CC1=C(CC(=O)c2cccc([N+](=O)[O-])c2)C(=O)c2ccccc2C1=O,4.05 µM,16.1 µM,39.7 µM,85.8 µM,2.22 µM,10.2 µM,3.54 µM,13.9 µM,2.96 µM,11.9 µM,2.46 µM,8.47 µM,19.7 µM,37.6 µM,3.02 µM,10.9 µM,3.21 µM,12.6 µM,15.6 µM,36.2 µM

# Source: PubChem BioAssay (NCI)
